The text below walks through data of patent publication US20250333405A1, “ANTAGONISTS OF GPR39 PROTEIN” (VASOCARDEA, INC., priority 2024, published 2025).

For the assay, the target named is T1, human GPR39 receptor (Homo sapiens, UniProt O43194).
T1 construct: PC3 Cells, Expressing the Endogenous Human GPR39 Receptor; endogenous in cells; host or cells: PC3 (human prostate adenocarcinoma) cells
T1 sequence (O43194 1-453): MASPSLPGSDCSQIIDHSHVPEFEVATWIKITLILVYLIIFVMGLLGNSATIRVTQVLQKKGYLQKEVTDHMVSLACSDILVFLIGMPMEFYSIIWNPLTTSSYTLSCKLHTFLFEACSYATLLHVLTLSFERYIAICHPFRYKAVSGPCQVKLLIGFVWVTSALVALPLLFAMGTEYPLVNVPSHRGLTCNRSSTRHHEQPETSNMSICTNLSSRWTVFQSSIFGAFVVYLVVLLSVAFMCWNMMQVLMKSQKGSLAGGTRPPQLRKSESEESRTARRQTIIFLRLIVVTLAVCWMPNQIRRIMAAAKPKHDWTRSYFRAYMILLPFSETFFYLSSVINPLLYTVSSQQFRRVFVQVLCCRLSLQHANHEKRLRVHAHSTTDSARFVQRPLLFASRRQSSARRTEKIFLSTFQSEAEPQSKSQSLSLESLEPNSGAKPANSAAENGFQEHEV
Put plainly: Intracellular calcium response (FLIPR, Calcium-6) in PC3 cells, antagonism of agonist C3 (TC-G 1008) at EC90. The format is cell-based. To be noted: functional pKi (-Log10Ki) by modified Cheng-Prusoff from IC50; PC3 cells endogenously expressing human GPR39; 30 μM ZnCl2; agonist C3 (TC-G 1008) at EC90 1.5 μM; read-out: fpKi activity. Here is the method: Measurement of Intracellular Calcium Response in PC3 Cells, Expressing the Endogenous Human GPR39 Receptor
Human prostate adenocarcinoma (PC3) cells endogenously expressing human GPR39 receptor were seeded into black walls clear-base 384-well plates at a density of 7,500 cells per well in DMEM (Low Glucose) supplemented with 10% heat-inactivated foetal bovine serum and 1% of Pen/Strep and grown overnight at 37° C., 5% CO2. After washing with assay buffer (20 mM HEPES, 137 mM NaCl, 5.4 mM KCl, 10 mM glucose, 0.8 mM MgSO4, 1.3 mM CaCl2), 0.3 mM Na2HPO4, 0.4 mM KH2PO4 4.2 mM NaHCO3, pH 7.4), cells were incubated with Calcium-6 probe (Molecular Devices) at 37° C. for 2 h and then equilibrated at RT for 30 minutes on metal block. The fluorescence was measured in real time by Fluorometric Imaging Plate Reader (FLIPR TETRA, Molecular Devices) (excitation wavelength at 470-495 nm, emission wavelength at 515-575 nm). Compounds of invention were serially diluted in neat DMSO at 1000 fold concentrations and plated into 384-well plates and then 200-fold diluted in assay buffer containing 150 μM ZnCl2 (30 μM final concentration) and 1.1% DMSO (0.32% final concentration). A dual addition FLIPR protocol was used which included a first addition of compounds 200-fold diluted in Assay Buffer containing 150 μM ZnCl2 and 1.1% DMSO and then after 10 minutes a second addition of a submaximal concentration of the hGPR39 receptor agonist, C3 (Tocris, TC-G 1008) at EC90 (concentration producing 90% of the maximal response) value of 1.5 μM. Fluorescence was monitored throughout the run assay. The peak of Ca2+ stimulation (baseline subtracted) was expressed as percentage of the maximal inhibition of the EC90 C3 response and was plotted versus the concentration of test compound. Curve fitting and IC50 estimations are carried out using a four-parameter logistic model using XLfit Software. […] An fpKi less than 5.2 is reported as “+/−”. An fpKi ranging from 5.2 to 5.9 is reported as “+”. An fpKi from 6.0 to 6.5 is reported as “++”. An fpKi from 6.6 to 7.2 is reported as “+++”. An fpKi equal to or greater than 7.3 is reported as “++++”.
In general terms: Calcium assays in cells follow changes in intracellular calcium, usually with a dye or a luminescent sensor.
`Cc1nnc(-c2ccc(C(=O)N3CCC(C(F)(F)F)CC3)c(-c3ccn(C4CCC4)n3)c2)[nH]1` [Example 47, [2-(1-cyclobutylpyrazol-3-yl)-4-(5-methyl-4H-1,2,4-triazol-3-yl)phenyl]-[4-(trifluoromethyl)piperidin-1-yl]methanone]: the Ki was not above 50.1 nM.

`Cc1nnc(-c2ccc(C(=O)N3CCC(C(F)(F)F)CC3)c(-c3ccn(C(C)C)n3)c2)[nH]1` [Example 48, [4-(5-methyl-4H-1,2,4-triazol-3-yl)-2-(1-propan-2-ylpyrazol-3-yl)phenyl]-[4-(trifluoromethyl)piperidin-1-yl]methanone]: the Ki was not above 50.1 nM.

Consider `Cc1nnc(-c2ccc(C(=O)N3CCC4(CC3)CC4)c(-c3cnn(C(C)C)c3)c2)[nH]1` [Example 49, 6-azaspiro[2.5]octan-6-yl-[4-(5-methyl-4H-1,2,4-triazol-3-yl)-2-(1-propan-2-ylpyrazol-4-yl)phenyl]methanone], for which the Ki lay in the range of 316 to 1000 nM.

Turning to `Cc1nnc(-c2ccc(C(=O)N3CCC4(CC3)CC4)c(-c3ccn(C(C)C)n3)c2)[nH]1` [Example 50, 6-azaspiro[2.5]octan-6-yl-[4-(5-methyl-4H-1,2,4-triazol-3-yl)-2-(1-propan-2-ylpyrazol-3-yl)phenyl]methanone], the Ki is not above 50.1 nM.

Regarding `Cc1nnc(-c2ccc(C(=O)N3CCC(F)(F)CC3)c(-c3ccn(C(C)C)n3)c2)[nH]1` [Example 51, (4,4-difluoropiperidin-1-yl)-[4-(5-methyl-4H-1,2,4-triazol-3-yl)-2-(1-propan-2-ylpyrazol-3-yl)phenyl]methanone], the Ki was not above 50.1 nM.

On to `Cc1nnc(-c2ccc(C(=O)N3CC4(C3)CC(F)(F)C4)c(-c3ccn(C(C)C)n3)c2)[nH]1` [Example 52, (6,6-difluoro-2-azaspiro[3.3]heptan-2-yl)-[2-(1-isopropylpyrazol-3-yl)-4-(5-methyl-4H-1,2,4-triazol-3-yl)phenyl]methanone], for which the Ki is not above 50.1 nM.

`Cc1nnc(-c2ccc(C(=O)N3CCC(C(F)(F)F)CC3)c(-c3ccn(C(C)(C)C)n3)c2)[nH]1` [Example 53, [2-(1-tert-butylpyrazol-3-yl)-4-(5-methyl-4H-1,2,4-triazol-3-yl)phenyl]-[4-(trifluoromethyl)-1-piperidyl]methanone]: the Ki was not above 50.1 nM.

Take `Cc1nnc(-c2ccc(C(=O)N3CCC(F)(F)CC3)c(-c3ccn(C(C)(C)C)n3)c2)[nH]1` [Example 54, [2-(1-tert-butylpyrazol-3-yl)-4-(5-methyl-4H-1,2,4-triazol-3-yl)phenyl]-(4,4-difluoropiperidin-1-yl)methanone]: the Ki was not above 50.1 nM.

Take `Cc1nnc(-c2ccc(C(=O)N3CCC(F)(F)CC3)c(-c3ccn(C4CCC4)n3)c2)[nH]1` [Example 55, [2-(1-cyclobutylpyrazol-3-yl)-4-(5-methyl-4H-1,2,4-triazol-3-yl)phenyl]-(4,4-difluoropiperidin-1-yl)methanone]: the Ki was not above 50.1 nM.

For `Cc1nnc(-c2ccc(C(=O)N3CCC(OC(F)(F)F)CC3)c(-c3ccn(C(C)C)n3)c2)[nH]1` [Example 56, 1-[4-(5-methyl-4H-1,2,4-triazol-3-yl)-2-[1-(propan-2-yl)-1H-pyrazol-3-yl]benzoyl]-4-(trifluoromethoxy) piperidine], the Ki was not above 50.1 nM.

Consider `COC1CCN(C(=O)c2ccc(-c3nnc(C)[nH]3)cc2-c2ccn(C(C)C)n2)CC1` [Example 58, (4-methoxypiperidin-1-yl)-[4-(5-methyl-4H-1,2,4-triazol-3-yl)-2-(1-propan-2-ylpyrazol-3-yl)phenyl]methanone], for which the Ki is not above 50.1 nM.

Consider `CCn1ccc(-c2cc(-c3nnc(C)[nH]3)ccc2C(=O)N2CCC(F)(F)CC2)n1` [Example 59, (4,4-difluoro-1-piperidyl)-[2-(1-ethylpyrazol-3-yl)-4-(5-methyl-4H-1,2,4-triazol-3-yl)phenyl]methanone], for which the Ki was not above 50.1 nM.

With `Cc1nnc(-c2ccc(C(=O)N3CCC(F)(F)CC3)c(-c3ccn(C4COC4)n3)c2)[nH]1` [Example 60, (4,4-difluoro-1-piperidyl)-[4-(5-methyl-4H-1,2,4-triazol-3-yl)-2-[1-(oxetan-3-yl)pyrazol-3-yl]phenyl]methanone], the Ki is not above 50.1 nM.

As for `Cc1nnc(-c2ccc(C(=O)N3CCC(C)CC3)c(-c3ccn(C(C)C)n3)c2)[nH]1` [Example 61, (4-methylpiperidin-1-yl)-[4-(5-methyl-4H-1,2,4-triazol-3-yl)-2-(1-propan-2-ylpyrazol-3-yl)phenyl]methanone], the Ki is not above 50.1 nM.

Turning to `Cc1nnc(-c2ccc(C(=O)N3CCC(C)CC3)c(-c3nc(C(F)(F)F)cs3)c2)[nH]1` [Example 62, (4-methyl-1-piperidyl)-[4-(5-methyl-4H-1,2,4-triazol-3-yl)-2-[4-(trifluoromethyl)thiazol-2-yl]phenyl]methanone], the Ki is not above 50.1 nM.

In the case of `Cc1nnc(-c2ccc(C(=O)N3CCC(C)CC3)c(-c3cccc(C4CC4)n3)c2)[nH]1` [Example 63, [2-(6-cyclopropyl-2-pyridyl)-4-(5-methyl-4H-1,2,4-triazol-3-yl)phenyl]-(4-methyl-1-piperidyl)methanone], the Ki was not above 50.1 nM.

`Cc1nnc(-c2ccc(C(=O)N3CCC(C)CC3)c(-c3ccn(C(C)(C)C)n3)c2)[nH]1` [Example 64, [2-(1-tert-butylpyrazol-3-yl)-4-(5-methyl-4H-1,2,4-triazol-3-yl)phenyl]-(4-methyl-1-piperidyl)methanone]: the Ki is not above 50.1 nM.

For the compound `Cc1nnc(-c2ccc(C(=O)N3CCC(C)(F)CC3)c(-c3cccc(C4CC4)n3)c2)[nH]1` [Example 65, [2-(6-cyclopropyl-2-pyridyl)-4-(5-methyl-4H-1,2,4-triazol-3-yl)phenyl]-(4-fluoro-4-methyl-1-piperidyl)methanone], the Ki is not above 50.1 nM.

Consider `COC1(C)CCN(C(=O)c2ccc(-c3nnc(C)[nH]3)cc2-c2ccn(C(C)(C)C)n2)CC1` [Example 66, [2-(1-tert-butylpyrazol-3-yl)-4-(5-methyl-4H-1,2,4-triazol-3-yl)phenyl]-(4-methoxy-4-methyl-1-piperidyl)methanone], for which the Ki was not above 50.1 nM.

`COC1(C)CCN(C(=O)c2ccc(-c3nnc(C)[nH]3)cc2-c2nc(C(F)(F)F)cs2)CC1` [Example 67, (4-methoxy-4-methyl-1-piperidyl)-[4-(5-methyl-4H-1,2,4-triazol-3-yl)-2-[4-(trifluoromethyl)thiazol-2-yl]phenyl]methanone]: the Ki is not above 50.1 nM.

With `Cc1cc(C(F)(F)F)nc(-c2cc(-c3nnc(C)[nH]3)ccc2C(=O)N2CCC(C(F)(F)F)CC2)n1` [Example 68, [4-(5-methyl-4H-1,2,4-triazol-3-yl)-2-[4-methyl-6-(trifluoromethyl)pyrimidin-2-yl]phenyl]-[4-(trifluoromethyl)-1-piperidyl]methanone], the Ki was not above 50.1 nM.

As for `Cc1nnc(-c2ccc(C(=O)N3CCC(C(F)(F)F)CC3)c(-c3nc(C4CC4)cs3)c2)[nH]1` [Example 69, [2-(4-cyclopropylthiazol-2-yl)-4-(5-methyl-4H-1,2,4-triazol-3-yl)phenyl]-[4-(trifluoromethyl)-1-piperidyl]methanone], the Ki was not above 50.1 nM.

As to `Cc1nnc(-c2ccc(C(=O)N3CCC(C(F)(F)F)CC3)c(-c3cccc(C(C)C)n3)c2)[nH]1` [Example 70, [2-(6-isopropyl-2-pyridyl)-4-(5-methyl-4H-1,2,4-triazol-3-yl)phenyl]-[4-(trifluoromethyl)-1-piperidyl]methanone], the Ki was not above 50.1 nM.
